Results reported in PubChem BioAssay (NCI).
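Cultured in 96-well plates, cells were exposed to test compound for 48 hours across five concentrations. Here, GI50 denotes the concentration required for 50% inhibition of growth. TGI marks complete inhibition of growth.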

Legend:
Assay in all cases: DTP human tumour cell line panel, 48 h
[1] = system: CAKI-1 renal
[2] = system: COLO 205 colon
[3] = system: IGROV1 ovarian
[4] = system: M19-MEL melanoma
[5] = system: NCI-H23 lung
[6] = system: OVCAR-4 ovarian
[7] = system: SNB-19 CNS
[8] = system: HS 578T breast
[9] = system: MDA-MB-231 breast
[10] = system: T-47D breast

SMILES	TGI [1] [µM]	TGI [2] [µM]	TGI [3] [µM]	TGI [4] [µM]	TGI [5] [µM]	TGI [6] [µM]	TGI [7] [µM]	TGI [8] [µM]	TGI [9] [µM]	TGI [10] [µM]	GI50 [1] [µM]	GI50 [2] [µM]	GI50 [8] [µM]	GI50 [3] [µM]	GI50 [9] [µM]	GI50 [5] [µM]	GI50 [6] [µM]	GI50 [7] [µM]	GI50 [10] [µM]	GI50 [4] [µM]
CC(C)CCC[C@@H](C)[C@H]1CC[C@H]2[C@@H]3CC=C4CC(OCCCCN(O)CCCSC5OC(CO)C(O)C(O)C5O)CC[C@]4(C)[C@H]3CC[C@]12C (stereo partly drawn)	> 100	47.3	50	> 100	> 100	> 100	> 100													
CCC1OC(=O)C(C)C(OC2CC(C)(O)C(O)C(C)O2)C(C)C(O)C(C)(O)CC(C)C(=O)C(C)C(O)C1C (stereo not drawn)	> 300	> 300	> 300	> 300	> 300	> 300	> 300													
COc1cc2c(oc(=O)c3c4oc([Si](C)(C)C)cc4cc(OC)c23)c2cccc(O)c12	> 100	> 100	> 100	> 100	> 100	> 100	> 100													
CN(C)CCCNc1ccc2nnn3c4ccc([N+](=O)[O-])cc4c(=O)c1c23	12.9	5.35	13.3	16.2	8.61	3.92	15.3	14.2	2.95	27.9										
O=C(N/N=C/c1cc(-c2ccccc2Cl)c(-c2ccccc2Cl)o1)c1ccncc1	> 100	> 100	> 100	> 100	> 100	> 100	> 100													
COCN1C(=O)[C@@H]2C[C@@H](OC/C=C/CBr)CN2C(=O)c2ccccc21	38.7	42.8	26.5		81.5	35.7	67.2	> 100	55.1	59										
O=C1NC(N2CCCC(CO)C2)=N/C1=C\c1ccc(O)cc1 (stereo not drawn)	> 100	> 100	> 100		> 100	> 100	> 100	> 100	> 100	> 100										
COc1c(-c2ccc3c(c2)OCO3)oc2cc3c(c(OC)c2c1=O)OCO3	62.4	> 100	55.1		53.5	70.1	43.4	93.9	> 100	36.7										
COc1ccccc1C1C(Cl)C(=O)N1NC(=O)Cc1ccccc1 (stereo not drawn)	> 100	> 100	> 100	> 100	> 100	> 100	> 100													
COc1ccc2c(c1)CCC1C2CCC2(C)C1CC[C@@]2(O)CNC(=O)/C=C/c1ccc(O)c(O)c1 (stereo partly drawn)	> 100	5.75	3.37		9.14	> 100	> 100	> 100	10	> 100	2.68	1.81	7.62	0.937	2.43	2.96	3.02	3.31	3.15	
CCOC(=O)C1C(=O)C=C(c2cc(C)ccc2O)CC1c1cccc(Br)c1 (stereo not drawn)	80.5	31.1	39.5		46.5	5.17	32.5	34.4	48.4	72										
O=C1N[C@@H](c2c[nH]c3ccc(Br)cc23)C(=O)N[C@H]1c1c[nH]c2ccc(Br)cc12	30.4	20	29.4		28.2	24	49.2	34.3	26.3	36.4										
CC(C)(C)C(=O)C(C#N)C(=O)C(C)(C)C	> 100	> 100	> 100		> 100	> 100	> 100	> 100	> 100	> 100										
COc1ccc(N=Nc2ccc3oc(=O)c(C(=O)Nc4ccc(OC)cc4)cc3c2)cc1	> 100	43.7	44		43.8	75.3	83.1	89.9	88.1	29.8										
CN1C(=N\S(=O)(=O)c2ccc(Cl)cc2)/C(=N/N=P(c2ccccc2)(c2ccccc2)c2ccccc2)c2ccccc21	> 100	> 100	> 100	> 100	> 100	> 100	> 100													
Cc1ccc(-n2cc(-c3ccc(Cl)cc3)c3c(NNC(=S)NCc4ccccc4)ncnc32)cc1	29.1	27.3	54.4		60.4	> 100	> 100	> 100	59.5	> 100										
C[N+](C)(C)CC(=O)N/N=C(\C(=O)Nc1ccc(Cl)cc1)C1C(=O)N(c2ccccc2)N=C1N (stereo not drawn)	> 100	> 100	> 100	> 100	> 100	> 100	> 100													
COc1ccc(/C=N/NC(=O)c2ccccc2Nc2ccccc2C(=O)N/N=C/c2ccc(OC)c(OC)c2)cc1OC	> 100	> 100	> 100		> 100	> 100	> 100	> 100	89.1	> 100										
O=C(Cl)c1cc([N+](=O)[O-])cc([N+](=O)[O-])c1	> 100	> 100	> 100	> 100	> 100	> 100	> 100													
Clc1ccc(CCN2CCN(CCCc3ccccc3)CC2)cc1Cl	33.8	31.6	31.3		31.6	31.4	30.8	44.9	30.8	35.1										
O=C(CCc1nnc2s/c(=C\c3ccc(Cl)cc3Cl)c(=O)n12)Nc1cc(Cl)c(Cl)cc1Cl	> 100	> 100	> 100	> 100	> 100	> 100					> 100	> 100		> 100		> 100	> 100			> 100
Nc1nc(NC(=O)C2=NS(=O)(=O)c3cc(S(N)(=O)=O)c(Cl)cc3N2)n[nH]1	> 100	> 100	> 100	> 100	> 100	> 100	> 100													
CCC1(CC)C(=O)N(C(=O)c2ccc(Cl)cc2)N(C(=O)c2ccccc2Cl)C1=O	> 100	> 100	16.3		> 100	> 100	> 100	> 100	> 100	> 100										
O=C(C(Cl)=C(Nc1ccccc1)Nc1ccccc1)C(Cl)Cl	45	97.7	> 100		93.2	> 100	71.3	> 100	91.2	75.9										
CC(C)(C)OC(=O)N1CC(COS(C)(=O)=O)c2ccc(O)cc21 (stereo not drawn)	9.62	3.31	12.1		3.05	3.13	8.95	5.75	8.41	11.1										
C=C(Cl)C(Cl)(CBr)CCC(Cl)C(C)C (stereo not drawn)	5.74	10.3	30.8		50	25.4	14.2	4.07	9.99	0.411										
COc1cccc(C(=O)C(O)c2cccc(OC)c2OC)c1OC (stereo not drawn)	> 100	> 100	> 100		> 100	> 100	> 100	> 100	> 100	> 100										
COc1cc(C=Nc2ccc(Oc3ccc(Cl)cc3)c(Cl)c2)cc(OC)c1OC	72	34	67.1		42	62.3	49.1	41.6	35	39.7										
CC(C)(C)C(=O)Cc1cc2c(cc1C(=O)O)S(=O)(=O)NC(C(C)(C)C)=C2	> 100	> 100		> 100	> 100	> 100	> 100													
